Measured values: patent publication US5484778A, “Phthalocyanine photosensitizers for photodynamic therapy and methods for their use” (priority 1993, dated 1996)
Like-named read-outs stand apart in the source and are kept apart here.

Assays:
[1] = white light
[2] = tested on: Chinese hamster V79-379 cells; test: Uptake of phthalocyanines by V79 cells relative to AlPcCl (Table 1); assay type: cell-based
Description: (§1) Chinese hamster V79-379 lung fibroblasts were grown in monolayer culture in McCoy's 5A medium (Gibco Laboratories, Grand Island, N.Y.) augmented with 10% calf serum and buffered with 20 mM HEPES (pH 7.4).
Total uptake was determined by scraping the phthalocyanine-treated monolayer, collecting the cells on a glass-fiber filter, and extracting the phthalocyanine in ethanol, as previously described by Ramakrishnan, et al., 1989. (Ramakrishnan, N., M. E. Clay, M. F. Horng, A. R. Antunez, & H. H. Evans, "DNA Lesions and DNA Degradation in Mouse Lymphoma L5178Y Cells After Photodynamic Treatment Sensitized by Chloroaluminum Phthalocyanine",Photochem. Photobiol, in press, 1989). The amount of drug was determined by absorption at 674 nm and expressed relative to the number of cells, as measured in a Coulter cell counter on an aliquot of the cell population. Controls included cells not treated with drug, medium alone, and drug-containing medium without cells. The results of the total uptake of the various compositions of the present invention in comparison to AlPcCl are set forth below in Table 1.
(§2) The cells were treated with 1 μM AlPcCl (from Eastman Kodak, Rochester, N.Y.) or with phthalocyanine compositions I-VI (0.5-1.0 μM final concentration in the medium) for 18 hours by adding the appropriate volume of a 1.0 mM stock solution in dimethylformamide (DMF) to the culture medium. The growth medium was replaced with 4 ml Hank's balanced salt solution (HBSS), and the cells were irradiated. The light source was a 500 W tungsten-halogen lamp located approximately 29 inches below the surface of a glass exposure tray. The visible light administered to the cells was filtered to allow passage of only that portion of the visible spectrum above 600 nm (Lee Primary red filter No. 106, Vincent Lighting, Cleveland, Ohio). The fluence rate was approximately 0.074 kJ/m^2 /s at the level of the cell monolayer.
All of the compounds have been examined for the extent of cellular uptake after exposure of V79 cells to 1 μM or less in complete medium, and the data of Table 1 are presented relative to the uptake from 1 μM AlPcCl, which was 0.723±0.172 nmole/10^7 cells (mean ±S. D., 25 determinations). […] In particular, when the concentration of Compound IV was 1 μM in the medium, the uptake into the cells was sufficiently high that some of the uptake and phototoxicity studies were repeated at 0.5 μM.

[3] = tested on: Chinese hamster V79-379 cells; test: Growth delay of V79 cultures after red light (Table 1); assay type: cell-based; details: for Growth Delay, efficiency relative to 1 μM AlPcCl: 18 h, 12 kJ/m^2 red light; for inhibition of V79 culture growth (in words): red light 12 kJ/m^2, three day period
Description: as §1, §2
At the time of light exposure, there were approximately 1.5×10^5 cells per 25 cm^2 flask. Following irradiation, the HBSS was replaced by 10 ml of fresh complete growth medium, and the cultures were returned to the 37° C. incubator. At various times before and after irradiation, duplicate cultures were trypsinized and counted. Controls included untreated cells and cells treated with light alone or drug alone. In addition, in each experiment, the drug to be tested was compared to a standard treatment, i.e. 1 μM AlPcCl for 18 hours followed by 12 kJ/m^2 light.
The inhibition of V79 culture growth was measured during a three day period following red light irradiation (12 kJ/m^2) of phthalocyanine-pretreated cells. With each of the active compounds, as well as with AlPcCl, there was an initial decrease in cell density, as dead cells became detached from the monolayer. Thereafter, the cell number per flask increased, as living cells grew and divided. The time for the cell density to recover to the level at the time of light exposure was considered the growth delay. […] The ratio of the growth delay for the test photosensitizer and the growth delay for AlPcCl measured in the same experiment is recorded in Table 1.

[4] = tested on: Chinese hamster V79-379 cells; test: Clonogenic cell survival / photocytotoxicity in V79 cells (Table 1, FIG. 1, FIG. 2); assay type: cell-based
Description: FIG. 1 is a graph illustrating the photodynamic efficacy of the various compositions of the present invention in comparison to AlPcCl. The phthalocyanine composition compounds of the present invention were tested for their photodynamic efficiency against Chinese hamster fibroblast V79 cells by colony formation. Monolayer cultures were treated with the indicated phthalocyanine composition for 18 hours, irradiated with various fluences of red light, and immediately trypsinized and replated at appropriate aliquots in triplicate. Colonies of at least 50 cells were counted after 7-10 days. The plating efficiency of the untreated cells was approximately 90%.
In this regard, in FIG. 2 the data of FIG. 1 were replotted as a function of the product of the amount of cell-associated phthalocyanine and the light fluence.
as §1, §2
Cells were irradiated at a density of approximately 2×10^6 per 25 cm^2 flask. Immediately after irradiation, the cell monolayer was treated with trypsin, and appropriate aliquots were plated in triplicate to give 100 to 200 colonies in each 10-cm Petri dish. Cell survival was determined by the ability of the cells to form colonies containing at least 50 cells. The response of cells treated with 1 μM AlPcCl and light was compared in each experiment.
Photocytotoxicity of the phthalocyanines compounds I to VI was also assessed by clonogenic assay (Table 1, FIG. 1). In all experiments, 1 μM AlPcCl was included for comparison purposes. From the survival curves (FIG. 1), the fluence reducing the cell survival to 10% (F10) was obtained. The ratio of the F10 for AlPcCl and the F10 for the test compound is recorded in Table 1.
In order to take differences in cellular uptake into consideration in the assessment of the relative efficiency of these phthalocyanines as photosensitizers of V79 cells, the survival data were replotted against the product of intracellular phthalocyanine concentration and light fluence (FIG. 2). From these curves, the product of intracellular concentration and light fluence reducing survival to 10% (CF10) was obtained, and comparisons of the values for AlPcCl and the test compounds are recorded in Table 1.

L5178Y cells = test: Induction of apoptosis (DNA fragmentation) in L5178Y-R cells (Table 6); assay type: cell-based, mouse; details: for induction of apoptosis: 1 μM at a fluence of 30 kJ/m^2; for Minimum Demonstrated Condition to induce apoptosis: C × F / Minimum Demonstrated Condition to induce apoptosis: Fluence: 0.5 μM
In short: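 Exponentially growing mouse lymphoma L5178Y-R cells loaded 18 hours with phthalocyanine at various concentrations, then irradiated with >600 nm red light (up to 30 kJ/m^2, ~74 W/m^2). DNA isolated 2 hours post-PDT, run on 1.5% agarose; value is minimum PDT dose (concentration × fluence) giving visible DNA ladder.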

viruses = details: New York Blood Center (Ben-Hur); cited from earlier work
V79 cells [5] = test: Clonogenicity, killing of V79 cells using photodynamic therapy (Table 3); assay type: cell-based, Chinese hamster
In short: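 V79 Chinese hamster lung fibroblasts were loaded with 0.5 or 1.0 μM phthalocyanine, then about 18 h later irradiated with increasing doses of 675 nm broad-band red light (tungsten-halogen lamp, 600 nm high-pass filter). Recorded value is the light dose killing 90% of cells, or, failing that, the maximum kill (% survival) and its dose.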

V79 cells [6] = test: Uptake of additional phthalocyanines into V79 cells (Table 2); details: for Uptake into V79 cells: 18 hours
Description: (§3) V79 cells Chinese hamster lung fibroblasts were cultured using the cell culture methods described above. […] When the filters were dry, the phthalocyanines were extracted into ethanol and the absorption determined at the peak wavelength, usually 668 nm.

V79 cells [7] = tested on: V79 cells
Description: as §3

CCN(CCC[Si](C)(C)O[Si]1(C)n2c3c4ccccc4c2N=C2N=C(N=c4c5ccccc5c(n41)=NC1=NC(=N3)c3ccccc31)c1ccccc12)CCN(C)C (centres unmarked) [CH3 SiPcOSi(CH3)2 (CH2)3 N(CH2 CH3)(CH2)2 N(CH3)2]
photolysis of solutions [1]: rapidly photolyzed by white light

CN1CCN(CCC[Si](C)(C)O[Si]2(C)n3c4c5ccccc5c3N=C3N=C(N=c5c6ccccc6c(n52)=NC2=NC(=N4)c4ccccc42)c2ccccc23)CC1 (centres unmarked) [CH3 SiPcOSi(CH3)2 (CH2)3 NC4 H8 NCH3]
photolysis of solutions [1]: rapidly photolyzed by white light

CN(C)CCCN(CCCN(C)C)CCC[Si](C)(C)O[Si]1(C)n2c3c4ccccc4c2N=C2N=C(N=c4c5ccccc5c(n41)=NC1=NC(=N3)c3ccccc31)c1ccccc12 (centres unmarked) [CH3 SiPcOSi(CH3)2 (CH2)3 N[(CH2)3 N(CH3)2]2]
photolysis of solutions [1]: rapidly photolyzed by white light

CN(C)CCC[Si](C)(C)[O][Al]1[n]2c3c4ccccc4c2N=C2N=C(N=c4c5ccccc5c([n]41)=NC1=NC(=N3)c3ccccc31)c1ccccc12 [Compound I, AlPcOSi(CH3)2 (CH2)3 N(CH3)2]
Uptake, efficiency relative to 1 μM AlPcCl ([2]; 1.0 μM, 18 h): 2.3 | cellular uptake (in words) ([2]; V79 cells, 1 μM or less, compared with AlPcCl): taken up into the cells more efficiently than was AlPcCl | Growth Delay, efficiency relative to 1 μM AlPcCl [3]: 2.1 | inhibition of V79 culture growth (in words) [3]: substantial inhibition | CF10 (AlPcCl)/CF10 (Pc) ([4]; 1.0 μM, 18 h, CF10 = intracellular concentration x fluence reducing survival to 10%): 0.51 | F10 (AlPcCl)/F10 (Pc) ([4]; 1.0 μM, 18 h, F10 = fluence reducing survival to 10%): 0.94 | photosensitizing efficiency / photocytotoxicity (in words) ([4]; V79 cells, red light): nearly as efficient photosensitizers as AlPcCl | solubility in solvents (Solubility): soluble in CH2 Cl2 and toluene

CN(C)CCC[Si](C)(C)O[Si]1(C)n2c3c4ccccc4c2N=C2N=C(N=c4c5ccccc5c(n41)=NC1=NC(=N3)c3ccccc31)c1ccccc12 (centres unmarked) [Compound III, CH3 SiPcOSi(CH3)2 (CH2)3 N(CH3)2]
Growth Delay, efficiency relative to 1 μM AlPcCl [3]: 0.05 | inhibition of V79 culture growth (in words) [3]: less inhibition of culture growth | photosensitizing efficiency / photocytotoxicity (in words) [4]: low activity | photolysis of solutions [1]: rapidly photolyzed by white light

C[N+](C)(C)CCC[Si](C)(C)O[Si]1(O[Si](C)(C)CCC[N+](C)(C)C)n2c3c4ccccc4c2N=C2N=C(N=c4c5ccccc5c(n41)=NC1=NC(=N3)c3ccccc31)c1ccccc12.[I-].[I-] [Compound VI, SiPc[OSi(CH3)2 (CH2)3 N(CH3)3)^+ I^- ]2]
Growth Delay, efficiency relative to 1 μM AlPcCl [3]: 0.05 | inhibition of V79 culture growth (in words) [3]: less inhibition of culture growth | photosensitizing efficiency / photocytotoxicity (in words) [4]: low activity | induction of apoptosis (L5178Y cells): did not induce apoptosis | purging viruses from blood and/or blood components (viruses): effective at purging viruses from blood and/or blood components

CCCCCCCCCCCC[N+](C)(C)CCC[Si](C)(C)O[Si]1(O[Si](C)(C)CCC[N+](C)(C)CCCCCCCCCCCC)n2c3c4ccccc4c2N=C2N=C(N=c4c5ccccc5c(n41)=NC1=NC(=N3)c3ccccc31)c1ccccc12 [Compound XIV, SiPc[OSi(CH3)2 (CH2)3 N^+ (CH3)2 (CH2)11 CH3]2 2I^-]
Cell survival at highest light dose at 1 µM (V79 cells [5]; Cricetulus griseus, V79, read-out: Maximum Effect (% survival)): 93% | induction of apoptosis (L5178Y cells): did not induce apoptosis | purging viruses from blood and/or blood components (viruses): effective at purging viruses from blood and/or blood components | Uptake into V79 cells (V79 cells [6]; 1 μM): 0.03 ± 0.01 n Moles/10^6 cells | Uptake into V79 cells (V79 cells [6]; 4 μM): 0.05 ± 0.01 n Moles/10^6 cells | Uptake into V79 cells, composite value (V79 cells [6]; average of all data): < 0.05 n Moles/10^6 cells/μM | Uptake (from Table 2) (V79 cells [6]; repeated in Table 3): < 0.05 n Moles/10^6 cells/μM

CCCCCCCCCCCC[N+](C)(C)CCC[Si](C)(C)[O][Al]1[n]2c3c4ccccc4c2N=C2N=C(N=c4c5ccccc5c([n]41)=NC1=NC(=N3)c3ccccc31)c1ccccc12.[I-] [Compound XXI, AlPcOSi(CH3)2 (CH2)3 N^+ (CH3)2)(CH2)11 CH3 I^-]
LD 90 (V79 cells [5]; 0.5 μM, 18 h, light dose killing 90% of cells): 15 kJ/m^2 | Minimum Demonstrated Condition to induce apoptosis: C × F (L5178Y cells): 7.5 μm × kJ/m^2 | Minimum Demonstrated Condition to induce apoptosis: Fluence (L5178Y cells): 15.0 kJ/m^2 | Uptake into V79 cells, composite value (V79 cells [7]): 1.3 n Moles/10^6 cells/μM | uptake by V79 cells (in words) (V79 cells [7]): taken up particulary well | purging viruses from blood and/or blood components (viruses): effective at purging viruses from blood and/or blood components

CN1CCN(CCC[Si](C)(C)O[Si]2(O[Si](C)(C)CCCN3CCN(C)CC3)n3c4c5ccccc5c3N=C3N=C(N=c5c6ccccc6c(n52)=NC2=NC(=N4)c4ccccc42)c2ccccc23)CC1 [Compound XXX, SiPc[OSi(CH3)2 (CH2)3 NC4 H8 NCH3]2]
Cell survival at highest light dose (V79 cells [5]; Cricetulus griseus, V79, concentration not given, at 10 kJ/m^2, read-out: Maximum Effect (% survival)): 30% | Minimum Demonstrated Condition to induce apoptosis: C × F (L5178Y cells; DMF-Tween 80): 7.5 μm × kJ/m^2 | Minimum Demonstrated Condition to induce apoptosis: Fluence (L5178Y cells; DMF-Tween 80): 15.0 kJ/m^2 | solubility (Solubility): < 500 µM | solubility in DMF (Solubility): not soluble in DMF

C[Si](C)(CCCN1CCNCC1)O[Si]1(O[Si](C)(C)CCCN2CCNCC2)n2c3c4ccccc4c2N=C2N=C(N=c4c5ccccc5c(n41)=NC1=NC(=N3)c3ccccc31)c1ccccc12 [Compound XXXII, SiPc[OSi(CH3)2 (CH2)3 NC4 H8 NH]2]
Minimum Demonstrated Condition to induce apoptosis: C × F (L5178Y cells; DMF-Tween 80): 2.5 μm × kJ/m^2 | Minimum Demonstrated Condition to induce apoptosis: Fluence (L5178Y cells; DMF-Tween 80): 5 kJ/m^2 | solubility in DMF (Solubility): not soluble in DMF
